Source: ChEMBL document CHEMBL4364344, “Design, synthesis and evaluation of activity and pharmacokinetic profile of new derivatives of xanthone and piperazine in the central nervous system” (Bioorg Med Chem Lett, 2019)
Calls of active or inactive are those of the source. The rule behind the calls is not given here.

What was measured:
[1] = Mutagenicity in Salmonella typhimurium TA98 at 2.5 ug/plate preincubated for 20 mins followed by addition of top agar and measured after 48 hrs by Ames test; format: toxicity; settings: salmonella enterica subsp. enterica serovar typhimurium
[2] = target: Serotonin 2 (5-HT2) receptor (Rattus norvegicus) (UniProt P30994+P08909+P14842); experiment: Displacement of [3H]ketanserin from 5-HT2 receptor in Wistar rat brain cortex membrane at 10 uM after 40 mins by scintillation counting analysis relative to control; format: cell membranes
Mus musculus [3] = experiment: Antidepressant-like activity in albino Swiss CD-1 mouse assessed as reduction in immobility at 20 mg/kg, ip pretreated for 30 mins and measured after 6 mins by force swim test relative to control; format: functional; set-up: scale not given: the % may be the effect or the level left
Mus musculus [4] = experiment: Antidepressant-like activity in albino Swiss CD-1 mouse assessed as reduction in immobility at 5 mg/kg, ip administered 30 mins prior to test and measured after 6 mins by force swim test relative to control; format: functional; set-up: scale not given: the % may be the effect or the level left
[5] = AUC (0 to t) in CD-1 mouse plasma at 5 mg/kg, ip measured up to 480 mins by LC/ESI-MS/MS analysis; format: ADME, organism-based; set-up: dose 5 mg/kg, time < 8 hr, route intraperitoneal
[6] = Terminal half life in CD-1 mouse plasma at 5 mg/kg, ip measured up to 480 mins by LC/ESI-MS/MS analysis; format: ADME, organism-based; settings: read-out: beta t1/2
[7] = MRT in CD-1 mouse plasma at 5 mg/kg, ip measured up to 480 mins by LC/ESI-MS/MS analysis; format: ADME, organism-based
[8] = Cmax in CD-1 mouse plasma at 5 mg/kg, ip measured up to 480 mins by LC/ESI-MS/MS analysis; format: ADME, organism-based; set-up: dose 5 mg/kg, route intraperitoneal
[9] = Tmax in CD-1 mouse plasma at 5 mg/kg, ip measured up to 480 mins by LC/ESI-MS/MS analysis; format: ADME, organism-based
[10] = Apparent volume of distribution in CD-1 mouse plasma at 5 mg/kg, ip measured up to 480 mins by LC/ESI-MS/MS analysis; format: ADME, organism-based
[11] = Apparent clearance in CD-1 mouse plasma at 5 mg/kg, ip measured up to 480 mins by LC/ESI-MS/MS analysis; format: ADME, organism-based
[12] = Ratio of drug uptake in CD-1 mouse brain to plasma at 5 mg/kg, ip measured up to 480 mins by LC/ESI-MS/MS analysis; format: ADME, organism-based; settings: read-out: BPR
[13] = AUC (0 to total) in CD-1 mouse brain at 5 mg/kg, ip measured up to 480 mins by LC/ESI-MS/MS analysis; format: ADME, organism-based; settings: in vivo, 8 h
[14] = Terminal half life in CD-1 mouse brain at 5 mg/kg, ip measured up to 480 mins by LC/ESI-MS/MS analysis; format: ADME, organism-based; settings: read-out: beta t1/2
[15] = MRT in CD-1 mouse brain at 5 mg/kg, ip measured up to 480 mins by LC/ESI-MS/MS analysis; format: ADME, organism-based
[16] = Cmax in CD-1 mouse brain at 5 mg/kg, ip measured up to 480 mins by LC/ESI-MS/MS analysis; format: ADME, organism-based; set-up: dose 5 mg/kg, route intraperitoneal
[17] = Tmax in CD-1 mouse brain at 5 mg/kg, ip measured up to 480 mins by LC/ESI-MS/MS analysis; format: ADME, organism-based
[18] = Mutagenicity in Salmonella typhimurium TA100 at 5 ug/plate preincubated for 20 mins followed by addition of top agar and measured after 48 hrs by Ames test; format: toxicity; settings: salmonella enterica subsp. enterica serovar typhimurium
[19] = Mutagenicity in Salmonella typhimurium TA100 at 50 ug/plate preincubated for 20 mins followed by addition of top agar and measured after 48 hrs by Ames test; format: toxicity; settings: salmonella enterica subsp. enterica serovar typhimurium
[20] = Mutagenicity in Salmonella typhimurium TA100 at 250 ug/plate preincubated for 20 mins followed by addition of top agar and measured after 48 hrs by Ames test; format: toxicity; settings: salmonella enterica subsp. enterica serovar typhimurium
[21] = Mutagenicity in Salmonella typhimurium TA100 at 500 ug/plate preincubated for 20 mins followed by addition of top agar and measured after 48 hrs by Ames test; format: toxicity; settings: salmonella enterica subsp. enterica serovar typhimurium
[22] = Mutagenicity in Salmonella typhimurium TA98 at 5 ug/plate preincubated for 20 mins followed by addition of top agar and measured after 48 hrs by Ames test; format: toxicity; settings: salmonella enterica subsp. enterica serovar typhimurium
[23] = Mutagenicity in Salmonella typhimurium TA98 at 50 ug/plate preincubated for 20 mins followed by addition of top agar and measured after 48 hrs by Ames test; format: toxicity; settings: salmonella enterica subsp. enterica serovar typhimurium
[24] = Mutagenicity in Salmonella typhimurium TA102 at 5 ug/plate preincubated for 20 mins followed by addition of top agar and measured after 48 hrs by Ames test; format: toxicity; settings: salmonella enterica subsp. enterica serovar typhimurium
[25] = Mutagenicity in Salmonella typhimurium TA102 at 50 ug/plate preincubated for 20 mins followed by addition of top agar and measured after 48 hrs by Ames test; format: toxicity; settings: salmonella enterica subsp. enterica serovar typhimurium
[26] = Drug metabolism in mouse liver microsomes assessed as metabolite formation by measuring retention time at 20 uM after 30 to 60 mins in presence of NADP by UPLC/MS analysis; format: ADME, Microsome
Mus musculus [27] = experiment: Antidepressant-like activity in Swiss CD-1 mouse assessed as reduction in immobility at 10 mg/kg, ip pretreated for 30 mins and measured after 6 mins by force swim test; format: functional, organism-based
[28] = Mutagenicity in Salmonella typhimurium TA100 preincubated for 20 mins followed by addition of top agar and measured after 48 hrs by Ames test; format: toxicity; settings: salmonella enterica subsp. enterica serovar typhimurium
Mus musculus [29] = experiment: Anxiolytic activity in Swiss CD-1 mouse assessed as increase in number of punished crossings at 5 mg/kg, ip administered 30 mins prior to test and measured for 60 secs by four-plate test relative to control; format: functional
Mus musculus [30] = experiment: Antidepressant-like activity in albino Swiss CD-1 mouse assessed as reduction in immobility at 10 mg/kg, ip pretreated for 30 mins and measured after 6 mins by force swim test relative to control; format: functional; set-up: scale not given: the % may be the effect or the level left
[31] = Mutagenicity in Salmonella typhimurium TA98 at 250 ug/plate preincubated for 20 mins followed by addition of top agar and measured after 48 hrs by Ames test; format: toxicity; settings: salmonella enterica subsp. enterica serovar typhimurium
[32] = Mutagenicity in Salmonella typhimurium TA98 at 500 ug/plate preincubated for 20 mins followed by addition of top agar and measured after 48 hrs by Ames test; format: toxicity; settings: salmonella enterica subsp. enterica serovar typhimurium
[33] = Mutagenicity in Salmonella typhimurium TA102 at 250 ug/plate preincubated for 20 mins followed by addition of top agar and measured after 48 hrs by Ames test; format: toxicity; settings: salmonella enterica subsp. enterica serovar typhimurium
[34] = Mutagenicity in Salmonella typhimurium TA102 at 500 ug/plate preincubated for 20 mins followed by addition of top agar and measured after 48 hrs by Ames test; format: toxicity; settings: salmonella enterica subsp. enterica serovar typhimurium
[35] = target: 5-hydroxytryptamine receptor 2A (Homo sapiens, UniProt P28223); experiment: Displacement of [3H]-ketanserin from human 5-HT2A receptor expressed in CHO-K1 cell membranes after 60 mins by microbeta scintillation counting analysis
Mus musculus [36] = experiment: Antidepressant-like activity in CD-1 mouse assessed as reduction in immobility at 10 mg/kg, ip pretreated for 30 mins and measured after 6 mins by force swim test relative to control; format: functional; set-up: scale not given: the % may be the effect or the level left
Mus musculus [37] = experiment: Anxiolytic activity in albino Swiss CD-1 mouse assessed as increase in number of punished crossings at 5 mg/kg, ip administered 30 mins prior to test by four-plate test relative to control; format: functional
Mus musculus [38] = experiment: Anxiolytic activity in albino Swiss CD-1 mouse assessed as increase in number of punished crossings at 20 mg/kg, ip administered 30 mins prior to test by four-plate test relative to control; format: functional

Sequence of Serotonin 2 (5-HT2) receptor (Rattus norvegicus) (P08909 whole entry, looked up): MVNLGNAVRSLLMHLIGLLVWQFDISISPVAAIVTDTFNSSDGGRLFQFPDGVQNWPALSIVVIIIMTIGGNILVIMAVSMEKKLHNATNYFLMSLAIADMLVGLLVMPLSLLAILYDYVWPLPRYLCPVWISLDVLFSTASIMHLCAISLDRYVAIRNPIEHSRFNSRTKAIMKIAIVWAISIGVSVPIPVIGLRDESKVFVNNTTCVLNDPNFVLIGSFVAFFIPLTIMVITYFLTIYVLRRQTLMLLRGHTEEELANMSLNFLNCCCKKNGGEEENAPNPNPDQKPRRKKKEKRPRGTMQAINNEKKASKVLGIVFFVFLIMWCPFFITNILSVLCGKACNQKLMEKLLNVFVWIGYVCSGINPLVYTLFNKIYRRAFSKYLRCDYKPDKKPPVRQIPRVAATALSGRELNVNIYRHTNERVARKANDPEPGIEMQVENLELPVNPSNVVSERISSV
Sequence of Serotonin 2 (5-HT2) receptor (Rattus norvegicus) (P14842 whole entry, looked up): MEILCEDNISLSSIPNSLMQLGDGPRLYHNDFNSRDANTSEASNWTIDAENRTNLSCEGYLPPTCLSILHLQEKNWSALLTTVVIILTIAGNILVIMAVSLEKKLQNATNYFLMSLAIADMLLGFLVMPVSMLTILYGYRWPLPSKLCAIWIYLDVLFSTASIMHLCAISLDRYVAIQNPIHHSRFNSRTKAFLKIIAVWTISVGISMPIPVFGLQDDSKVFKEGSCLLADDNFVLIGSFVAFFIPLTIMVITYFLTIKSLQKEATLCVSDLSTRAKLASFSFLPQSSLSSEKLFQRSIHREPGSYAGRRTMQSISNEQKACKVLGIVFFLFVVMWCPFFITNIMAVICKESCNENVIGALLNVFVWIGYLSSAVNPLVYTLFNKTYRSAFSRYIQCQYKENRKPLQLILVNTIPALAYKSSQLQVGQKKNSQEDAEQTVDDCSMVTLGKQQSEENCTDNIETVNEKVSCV
Sequence of Serotonin 2 (5-HT2) receptor (Rattus norvegicus) (P30994 whole entry, looked up): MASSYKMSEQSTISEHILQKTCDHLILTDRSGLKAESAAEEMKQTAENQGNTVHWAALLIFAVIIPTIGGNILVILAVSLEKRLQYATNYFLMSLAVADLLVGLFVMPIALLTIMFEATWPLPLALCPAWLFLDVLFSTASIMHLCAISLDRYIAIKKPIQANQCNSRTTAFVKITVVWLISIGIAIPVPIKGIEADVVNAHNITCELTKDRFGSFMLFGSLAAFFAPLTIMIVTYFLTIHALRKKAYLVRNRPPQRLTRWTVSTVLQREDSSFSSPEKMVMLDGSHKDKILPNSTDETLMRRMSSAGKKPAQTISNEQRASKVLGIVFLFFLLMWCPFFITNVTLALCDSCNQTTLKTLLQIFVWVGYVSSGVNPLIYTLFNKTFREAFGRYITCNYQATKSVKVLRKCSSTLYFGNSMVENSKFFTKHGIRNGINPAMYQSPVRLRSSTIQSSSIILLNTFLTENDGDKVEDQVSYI
Sequence of 5-hydroxytryptamine receptor 2A (P28223 whole entry): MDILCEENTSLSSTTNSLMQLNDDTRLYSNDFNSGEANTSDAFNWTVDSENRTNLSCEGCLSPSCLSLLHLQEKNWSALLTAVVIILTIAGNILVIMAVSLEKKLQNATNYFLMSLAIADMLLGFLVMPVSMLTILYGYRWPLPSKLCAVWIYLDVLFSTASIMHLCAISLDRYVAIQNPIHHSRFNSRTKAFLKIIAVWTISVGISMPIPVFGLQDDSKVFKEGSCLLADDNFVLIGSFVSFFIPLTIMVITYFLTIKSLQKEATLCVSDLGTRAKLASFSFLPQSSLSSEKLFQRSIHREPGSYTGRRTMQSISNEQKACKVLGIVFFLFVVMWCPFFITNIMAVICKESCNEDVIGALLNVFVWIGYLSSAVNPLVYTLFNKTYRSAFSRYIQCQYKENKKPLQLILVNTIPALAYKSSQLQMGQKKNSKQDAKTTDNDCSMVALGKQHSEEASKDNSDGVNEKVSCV

## Nc1ccc([N+](=O)[O-])cc1N
[1]
  Activity_index: 10.79

## COc1ccc(OCCCN2CCN(Cc3cccc4c(=O)c5ccc(OC)cc5oc34)CC2)cc1
[2]
  inhibition: 38%

## COc1ccc2c(=O)c3cccc(CN4CCN(c5ccccc5)CC4)c3oc2c1
[2]
  inhibition: 91%

## CCOC(=O)N1CCN(Cc2cccc3c(=O)c4ccccc4oc23)CC1
[2]
  inhibition: 3%

## O=c1c2ccc(Cl)cc2oc2c(CN3CCN(c4ccccc4)CC3)cccc12
[2]
  inhibition: 75%

## CN1CCN(Cc2ccc3oc4ccc(Cl)cc4c(=O)c3c2)CC1
Mus musculus [3]
  Activity: 24.7%
[2]
  inhibition: 50%
Mus musculus [4]
  Activity: 37.8%
[5]
  AUC(0-t) at 8 h: 334 ng·h/mL
[6]
  half-life: 126 min
[7]
  MRT: 129 min
[8]
  Cmax: 136 ng/mL
[9]
  Tmax: 15 min
[10]
  Vd/F: 41.3 L/kg
[11]
  CL/F: 226 mL/min/kg
[12]
  Kp at 8 h: 31.6
[13]
  AUCt: 633023 ng·min/g
[14]
  half-life: 159 min
[15]
  MRT: 152 min
[16]
  Cmax: 3690 ng/mL
[17]
  Tmax: 30 min
[18]
  Activity_index: 1.21
[19]
  Activity_index: 0.43
[20]
  Activity_index: 2.08
[21]
  Activity_index: 2.93
[22]
  Activity_index: 1.04
[23]
  Activity_index: 0.78
[24]
  Activity_index: 1.04
[25]
  Activity_index: 0.86
[26]
  Retention_time: 4.64 min
Mus musculus [27]
  Activity: inactive
[28]
  Activity_index: Dose-dependent effect

## CN1CCN(Cc2cccc3c(=O)c4ccc(Cl)cc4oc23)CC1.Cl.Cl
Mus musculus [3]
  Activity: 28%
Mus musculus [29]
  Activity: 100%

## Cl.Cl.O=c1c2ccccc2oc2c(CN3CCN(CCO)CC3)cccc12
Mus musculus [30]
  Activity: 25.6%
[2]
  inhibition: 0%
Mus musculus [4]
  Activity: 38.1%
[5]
  AUC(0-t) at 8 h: 215 ng·h/mL
[6]
  half-life: 48.3 min
[7]
  MRT: 40.3 min
[8]
  Cmax: 462 ng/mL
[9]
  Tmax: 15 min
[10]
  Vd/F: 26.9 L/kg
[11]
  CL/F: 386 mL/min/kg
[12]
  Kp at 8 h: 4.85
[13]
  AUCt: 62578 ng·min/g
[14]
  half-life: 143 min
[15]
  MRT: 24.1 min
[16]
  Cmax: 2630 ng/mL
[17]
  Tmax: 15 min
[18]
  Activity_index: 0.69
[19]
  Activity_index: 0.79
[20]
  Activity_index: 0.46
[21]
  Activity_index: 0.31
[22]
  Activity_index: 1.34
[23]
  Activity_index: 0.86
[31]
  Activity_index: 0.52
[32]
  Activity_index: 0.72
[24]
  Activity_index: 0.74
[25]
  Activity_index: 0.54
[33]
  Activity_index: 0.39
[34]
  Activity_index: 0.26
[26]
  Retention_time: 3.05 min

## Cl.Cl.O=c1c2ccc(Cl)cc2oc2c(CN3CCN(CCO)CC3)cccc12
Mus musculus [30]
  Activity: 30%

## [N-]=[N+]=[N-].[Na+] [SODIUM AZIDE]
[18]
  Activity_index: 2.26

## O=c1c2ccccc2oc2c(CN3CCN(c4ccccc4)CC3)cccc12
[2]
  inhibition: 88%

## COc1ccc(OCCCN2CCN(Cc3ccc4oc5cc(OC)ccc5c(=O)c4c3)CC2)cc1
[2]
  inhibition: 75%

## O=c1c2cc(Cl)ccc2oc2ccc(CN3CCN(CCO)CC3)cc12
[2]
  inhibition: 43%

## COc1ccc2c(=O)c3cccc(CN4CCN(c5ccccc5OC)CC4)c3oc2c1.Cl
[35]
  Ki: 2180 nM
Mus musculus [36]
  Activity: 24%

## COc1ccccc1N1CCN(Cc2cccc3c(=O)c4ccccc4oc23)CC1
[2]
  inhibition: 70%

## COc1ccc2c(=O)c3cccc(CN4CCN(Cc5ccccc5)CC4)c3oc2c1
[2]
  inhibition: 41%

## CCOC(=O)N1CCN(Cc2cccc3c(=O)c4ccc(OC)cc4oc23)CC1.Cl.Cl
Mus musculus [30]
  Activity: 50.2%
[2]
  inhibition: 22%
Mus musculus [37]
  Activity: 70.1%
Mus musculus [38]
  Activity: 55.3%
[5]
  AUC(0-t) at 8 h: 481 ng·h/mL
[6]
  half-life: 184 min
[7]
  MRT: 60.5 min
[8]
  Cmax: 468 ng/mL
[9]
  Tmax: 15 min
[10]
  Vd/F: 43.8 L/kg
[11]
  CL/F: 165 mL/min/kg
[12]
  Kp at 8 h: 2.86
[13]
  AUCt: 82715 ng·min/g
[14]
  half-life: 72 min
[15]
  MRT: 74.6 min
[16]
  Cmax: 936 ng/mL
[17]
  Tmax: 30 min
[18]
  Activity_index: 0.68
[19]
  Activity_index: 0.61
[20]
  Activity_index: 0.42
[21]
  Activity_index: 0.34
[22]
  Activity_index: 0.76
[23]
  Activity_index: 0.79
[31]
  Activity_index: 0.72
[32]
  Activity_index: 1
[24]
  Activity_index: 0.82
[25]
  Activity_index: 0.77
[33]
  Activity_index: 1.3
[34]
  Activity_index: 0.87
[26]
  Retention_time: 4.12 min

## O=c1c2ccc(Cl)cc2oc2ccc(CN3CCN(CCO)CC3)cc12
[2]
  inhibition: 39%

## COc1ccc2c(=O)c3cc(CN4CCN(c5ccccc5OC)CC4)ccc3oc2c1.Cl
[35]
  Ki: 561 nM
Mus musculus [36]
  Activity: 32%
